Measured values from patent US9045483B2, “Inhibition of small ubiquitin-like modifier enzymes with substituted pyrrolo[2,3-b]quinoxalines” (City of Hope, priority 2010, dated 2015).
“Also recorded” adds a separate entry of the source. Read-outs that look alike come from different tables or passages of the source.

What was measured:
SUMO E1 [1] = target: T1, SUMO E1 (Homo sapiens (Human), UniProt Q9UBT2); settings: in the presence of Mg2+; read-out: Kd of ATP binding to E1; cited from earlier work
SUMO E1 [2] = target: T1, SUMO E1; experiment: SUMO E1 inhibition, formation of the Ubc9-SUMO thioester (biochemical assay)
SUMO E1 [3] = target: T1, SUMO E1; experiment: NMR saturation transfer difference (STD) competition with ATP; format: binding
Excerpt: In (A), ATP spectra with assignments indicated, and the percentage of STD effects indicated for each resonance. Red spectrum indicates 2 s saturation at −30 ppm (control), blue spectrum (underneath red) indicates 2 s saturation of protein signals at 0 ppm, and green spectrum (bottom) indicates the difference between the red and blue spectra. […] […] The corresponding STD spectra are color-coded as indicated to the right. A region of the spectrum covering H2 of ATP and H12 and H13 from the compound are shown, with the H2 signal of ATP expanded in the inset. […] The titration data was used to estimate Kd of the compound.

[4] = tested on: global SUMOylation in HT29, HCT116 and U373 cells; experiment: Global SUMOylation in cancer cell lines, Western blot with anti-SUMO2/3 antibodies; format: cell-based; settings: 18 hours; for inhibition of SUMOylation in cells: various concentrations, HCT116, HT29, U373
Protocol: Western blots (probed with anti-SUMO2/3 antibodies) of cell lysates from HT29, HCT116 and U373 cells treated with compound 1. SUMO2/3 modifies many proteins as poly-SUMO chains, and is detected as high molecular weight smears. 16c indicates the control compound 2 used at concentrations of 16 μM.
Quinoxaline 1 or 2 was added to cell culture media at various concentrations for 18 hours, after which SUMOylated proteins were detected using anti-SUMO antibodies. […] Thus, quinoxaline 1 has potent and specific inhibitory effects in various cancer cell lines.

[5] = tested on: MCF7, H1299, DLD1 and SJSA cancer cell lines; experiment: Sensitization of cancer cell lines to irradiation, MTS cell survival assay; format: cell-based; settings: for sensitization of cancer cell lines to radiation: drug 4 hours, then 4 Gy
Protocol: The cells were treated with different doses of the drug for 4 hours, followed by irradiation with 4 Gy and incubation for an additional 68 hours. […] Cell survival was assessed by MTS assays
Quinoxaline 1 was added to cultures of various cancer cell lines for 4 hours, after which cells were irradiated at 4 Gy. Forty-eight hours after irradiation, cell viability was measured by MTS assay.

Fa2N-4 cells = experiment: Toxicity on immortalized human hepatocytes, cellular ATP viability assay; format: cell-based; settings: Fa2N-4, concentrations up to 50 μM, 24 hrs
Protocol: FIG. 9 illustrates the toxicity of the SUMO inhibitor on normal human liver cells. Immortalized human hepatocytes, Fa2N-4 cells (XenoTech) were seeded at ˜50-60K cells/well, and incubated with a range of concentrations (0.01-50 μM) 1, in duplicate, for 24 hrs at 37° C., 5% CO2. Cell viability was determined by cellular ATP levels using the Luminescence ATP Detection Assay System (Tecan).

HIV = format: cell-based
[6] = tested on: RanGAP1 stable SUMOylation in U20S and DLD1 cells; experiment: Stable SUMOylation, RanGAP1 and RanBP2 localization by immunohistochemistry; format: cell-based; settings: 18 hours
Protocol: Cells were treated with the compound at indicated concentration for 18 hours, and then localization of RanGAP1 and RanBP2 was detected by immunohistochemistry. Nuclei are stained with DAPI.

53BP1 = 53BP1 colocalization with γH2AX at DSB sites in IR-treated cells; format: cell-based; settings: 20 μM, 18 hours, 1 Gy, 1 hour recovery
Excerpt: (Green: γH2AX; Red: 53BP1).

BRCA1 = BRCA1 colocalization with γH2AX in IR-treated cells; format: cell-based; settings: 20 μM, 18 hours, 1 Gy
Excerpt: (Green: BRCA1; Red: γH2AX).

ubiquitin E1 = ubiquitin E1 (Homo sapiens (Human), UniProt P22314); settings: Ubc5-ubiquitin thioester vs Ubc9-SUMO thioester
[7] = in vitro, read-out: IC50 for SUMO E1

T1 sequence (Q9UBT2 whole entry): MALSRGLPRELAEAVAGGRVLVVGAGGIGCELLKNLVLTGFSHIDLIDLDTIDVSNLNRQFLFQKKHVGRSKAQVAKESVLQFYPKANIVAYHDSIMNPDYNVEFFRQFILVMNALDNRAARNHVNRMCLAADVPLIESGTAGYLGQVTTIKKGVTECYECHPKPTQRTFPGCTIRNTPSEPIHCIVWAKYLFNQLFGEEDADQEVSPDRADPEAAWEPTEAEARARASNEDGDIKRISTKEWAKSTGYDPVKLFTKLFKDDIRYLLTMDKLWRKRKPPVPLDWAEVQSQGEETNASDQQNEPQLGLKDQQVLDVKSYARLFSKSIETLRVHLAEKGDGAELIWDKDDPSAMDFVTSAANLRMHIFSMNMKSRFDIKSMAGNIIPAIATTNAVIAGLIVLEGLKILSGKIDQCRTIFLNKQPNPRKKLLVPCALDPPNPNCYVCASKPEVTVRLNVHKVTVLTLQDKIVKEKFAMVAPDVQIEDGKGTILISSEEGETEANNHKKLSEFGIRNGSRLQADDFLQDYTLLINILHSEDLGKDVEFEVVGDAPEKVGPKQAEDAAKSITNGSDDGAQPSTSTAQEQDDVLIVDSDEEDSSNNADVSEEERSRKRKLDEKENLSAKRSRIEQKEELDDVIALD
T1 sequence (Q9UBE0 whole entry partner): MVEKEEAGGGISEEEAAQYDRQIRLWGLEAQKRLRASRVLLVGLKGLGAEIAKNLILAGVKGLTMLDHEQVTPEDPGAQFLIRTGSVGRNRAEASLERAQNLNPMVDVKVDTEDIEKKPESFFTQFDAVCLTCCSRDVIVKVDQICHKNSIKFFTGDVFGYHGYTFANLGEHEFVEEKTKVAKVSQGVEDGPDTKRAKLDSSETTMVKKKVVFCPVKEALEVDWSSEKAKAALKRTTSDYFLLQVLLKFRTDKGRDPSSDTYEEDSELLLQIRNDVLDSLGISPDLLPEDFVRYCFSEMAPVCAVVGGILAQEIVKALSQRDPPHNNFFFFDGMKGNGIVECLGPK
Chain of ubiquitin E1 (P22314 whole entry, looked up): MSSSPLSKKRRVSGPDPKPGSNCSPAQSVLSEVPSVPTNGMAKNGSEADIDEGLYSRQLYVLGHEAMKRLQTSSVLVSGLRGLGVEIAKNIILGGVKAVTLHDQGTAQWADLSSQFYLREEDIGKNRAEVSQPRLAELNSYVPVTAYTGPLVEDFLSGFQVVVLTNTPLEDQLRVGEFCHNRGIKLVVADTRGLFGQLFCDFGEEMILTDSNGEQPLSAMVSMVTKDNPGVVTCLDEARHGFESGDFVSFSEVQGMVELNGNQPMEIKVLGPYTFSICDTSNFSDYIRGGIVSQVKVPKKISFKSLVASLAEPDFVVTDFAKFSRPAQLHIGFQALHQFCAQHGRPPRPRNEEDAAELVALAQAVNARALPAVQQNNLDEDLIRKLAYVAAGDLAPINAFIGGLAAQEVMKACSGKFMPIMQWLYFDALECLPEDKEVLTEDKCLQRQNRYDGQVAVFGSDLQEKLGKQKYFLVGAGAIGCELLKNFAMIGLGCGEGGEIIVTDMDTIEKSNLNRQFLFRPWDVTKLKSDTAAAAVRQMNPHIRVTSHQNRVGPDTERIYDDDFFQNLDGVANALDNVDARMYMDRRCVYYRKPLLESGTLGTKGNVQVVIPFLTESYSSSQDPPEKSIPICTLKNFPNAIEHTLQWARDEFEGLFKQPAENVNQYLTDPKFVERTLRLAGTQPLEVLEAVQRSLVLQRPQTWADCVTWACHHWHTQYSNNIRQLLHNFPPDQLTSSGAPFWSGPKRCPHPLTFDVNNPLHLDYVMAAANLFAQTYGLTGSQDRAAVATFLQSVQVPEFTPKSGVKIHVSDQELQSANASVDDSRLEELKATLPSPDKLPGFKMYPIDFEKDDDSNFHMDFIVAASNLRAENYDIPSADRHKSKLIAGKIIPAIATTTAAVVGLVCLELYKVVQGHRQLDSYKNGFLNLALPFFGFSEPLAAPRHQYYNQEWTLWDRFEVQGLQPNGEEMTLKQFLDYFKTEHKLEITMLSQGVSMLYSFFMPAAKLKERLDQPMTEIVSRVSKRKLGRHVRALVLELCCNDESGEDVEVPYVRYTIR

## Nc1ncnc2c1ncn2[C@@H]1O[C@H](COP(=O)(O)OP(=O)(O)OP(=O)(O)O)[C@@H](O)[C@H]1O [ATP]
SUMO E1 [1]
  Kd: ~0.2 µM

## CCCCn1c(NS(=O)(=O)c2ccccc2)c(S(=O)(=O)c2ccc(C)cc2)c2nc3ccccc3nc21 [Tricyclic Compound 1]
SUMO E1 [2]; in vitro, listed as compound 1, read-out: IC50 for SUMO E1
  IC50: ~0.5 µM
SUMO E1 [2]; [7]
  IC50: 0.5 µM
SUMO E1 [3]
  competition with ATP binding to E1: strong competition with ATP binding
SUMO E1 [3]; 30 μM inhibitor, 80 μM ATP, 2 μM E1, 0.4 mM Mg2+
  reduction in the STD of ATP: more than 60%
SUMO E1 [3]; estimated from competitive STD data, read-out: Kd (inhibitor-enzyme dissociation constant)
  Kd: ~0.18 µM
SUMO E1 [3]; listed as quinoxaline 1
  competition with ATP binding to E1: competed with the binding of ATP
[4]; 16 μM
  inhibition at 16 µM: > 80%
[4]
  inhibition of SUMOylation in cells: inhibits global SUMOylation in a dose-dependent manner
[4]; listed as Quinoxaline 1
  inhibition of SUMOylation in cells: inhibited SUMOylation in a dose-dependent manner
[5]
  toxicity in cancer cell lines: induced some toxicity in selected cancer cell lines
[5]; listed as MLS-0207587
  sensitization of cancer cell lines to radiation: significantly lower survival rate
[5]; listed as Quinoxaline 1
  sensitization of cancer cell lines to radiation: significantly enhanced the sensitivity
Fa2N-4 cells
  toxicity to human hepatocytes: did not cause significant toxicity
Fa2N-4 cells; listed as Quinoxaline 1
  toxicity to human hepatocytes: no toxicity was detected
HIV
  inhibition of HIV infection: inhibited HIV infection in a dose dependent manner; also recorded: inhibits HIV infection in a dose-dependent manner
[6]
  effect on stable SUMOylation: does not disrupt stable SUMOylation
53BP1; DLD1 cells
  53BP1 colocalization with γH2AX: inhibits 53BP1 colocalization with γH2AX
53BP1; U20S cells
  53BP1 colocalization with γH2AX: inhibits 53BP1 colocalization with γH2AX
BRCA1; DLD1 cells, 1 hour recovery
  BRCA1 colocalization with γH2AX: inhibits BRCA1 colocalization with γH2AX
BRCA1; U20S cells, 1 hour
  BRCA1 colocalization with γH2AX: inhibits BRCA1 colocalization with γH2AX
Ubiquitin E1
  IC50 for ubiquitin E1 relative to SUMO E1 (selectivity): > 100 fold
Ubiquitin E1; listed as quinoxaline 1
  IC50 for ubiquitin E1 relative to SUMO E1 (selectivity): more than 100 fold

## CCCCn1c(NC(=O)c2ccccc2Cl)c(C#N)c2nc3ccccc3nc21 [Tricyclic Compound 2]
SUMO E1 [2]; [7]
  IC50: 20 µM

## CCCCn1c(NC(=O)c2ccccc2)c(C#N)c2nc3ccccc3nc21 [Tricyclic Compound 3]
SUMO E1 [2]; [7]
  IC50: 3.6 µM

## CCCCn1c(NC(C)=O)c(C#N)c2nc3ccccc3nc21 [Tricyclic Compound 4]
SUMO E1 [2]; [7]
  IC50: 8.3 µM

## N#Cc1c(NC(=O)c2ccccc2Cl)n(Cc2ccccc2)c2nc3ccccc3nc12 [Tricyclic Compound 5]
SUMO E1 [2]; [7]
  IC50: 25 µM

## CCCCn1c(N)c(S(=O)(=O)c2ccccc2)c2nc3ccccc3nc21 [Tricyclic Compound 6]
SUMO E1 [2]; [7]
  IC50: 64 µM

## CCCCn1c(NC(=O)c2ccccc2)c(S(=O)(=O)c2ccccc2)c2nc3ccccc3nc21 [Tricyclic Compound 7]
SUMO E1 [2]; [7]
  IC50: 98 µM

## CCCCn1c(NC(=O)c2ccc(Cl)cc2)c(C#N)c2nc3cc(C)c(C)cc3nc21 [Tricyclic Compound 8]
SUMO E1 [2]; [7]
  IC50: 4.5 µM

## CCCCNC(=O)c1c(NC(=O)c2ccccc2Cl)n(Cc2ccccc2)c2nc3ccccc3nc12 [Tricyclic Compound 9]
SUMO E1 [2]; [7]
  IC50: 1.1 µM

## CCCCn1c(NC(=O)c2ccco2)c(C#N)c2nc3ccccc3nc21 [Tricyclic Compound 10]
SUMO E1 [2]; [7]
  IC50: 5.7 µM

## CCCCn1c(NC(=O)c2ccccc2Cl)c(S(=O)(=O)c2ccccc2)c2nc3ccccc3nc21 [Tricyclic Compound 11]
SUMO E1 [2]; [7]
  IC50: > 100 µM

## C=CCn1c(NS(=O)(=O)c2ccccc2)c(S(=O)(=O)c2ccc(C)cc2)c2nc3ccccc3nc21 [Tricyclic Compound 12]
SUMO E1 [2]; [7]
  IC50: 0.5 µM

## CCCCn1c(NC(=O)c2ccc(F)cc2)c(C#N)c2nc3ccccc3nc21 [Tricyclic Compound 13]
SUMO E1 [2]; -BSA, read-out: IC50(-BSA)
  IC50: 0.76 µM
